One test has as its target T1, Ba/F3-ETV6-NTRK3 (Homo sapiens, UniProt Q16288).
T1 construct: Ba/F3 cells with TPM3-NTRK1 or ETV6-NTRK3 fusion mutation gene stably overexpressed named Ba/F3-TPM3-NTRK1 and Ba/F3-ETV6-NTRK3; fused on or other part: P41212 (Transcription factor ETV6)
Briefly: Ba/F3-ETV6-NTRK3 cells proliferation assay. As to conditions: 72 h, CellTiter Glo. Type of test: cell-based. The procedure:
(§1) Example 202 Ba/F3-TPM3-NTRK1 and Ba/F3-ETV6-NTRK3 cells proliferation assay
(§2) Cell line: Ba/F3 cells with TPM3-NTRK1 or ETV6-NTRK3 fusion mutation gene stably overexpressed named Ba/F3-TPM3-NTRK1 and Ba/F3-ETV6-NTRK3.
(§3) RPMI 1640 and 10% FBS and 1% PS and 2 ug/mL puromycin.
(§4) b) Collect cell to a 15 mL centrifuged tube, centrifuge at 1000 rpm for 5 min. Discard the supernatant, count, and make the cell density at 1.49×10^4 cells/mL, then place it in a 37° C., 5% CO2 incubator.
(§5) a) The test compound (20 mM stock solution) was diluted to 60 μM with 100% DMSO as starting concentration then 3-fold serial diluted with “9+0” concentrations. in a 96-well dilution plate (Thermo, Cat. No. 249944);
(§6) b) The above compound solution was diluted 1:20 times with culture medium to prepare a 10 fold working solution;
(§7) a) Take cells in log phase growth, centrifuge at 1000 rpm for 5 min, then resuspend the cells with culture medium, then count cells;
(§8) b) Cells were seeded to 96-well cell culture plate with density at 2000 cells/well;
(§9) a) Compounds prepared at step 2 were added to cell plate with 15 μL per well, the final concentrations were 300, 100, 33.33, 11.11, 3.70, 1.23, 0.41, 0.14, 0.05 and 0 nM, and the final concentration of DMSO was 0.5%. The blank control well was a culture medium (0.5% DMSO);
(§10) c) The cells were incubated for an additional 72 h in the incubator.
(§11) a) Remove the 96-well cell culture plate and add 50 μl of CTG reagent (CellTiter Glo kit, promega, Cat #G7573).
(§12) b) Plate was shaked for 2 min and then let it cool for 30 min at room temperature.
(§13) c) The Luminescence signal value was read using a PerkinElmer reader.
(§14) Experimental Data Analysis
(§15) Data were analyzed using GraphPad Prism 6.0 software to obtain a fitted curve of compound activity.
(§16) Fit the Compound IC50 from non-linear regression equation:
(§17) Y=Bottom+(Top-Bottom)/(1+10^((Log IC50-X)×HillSlope));
(§18) X: The log of the concentration of the compound; Y: Luminescence value.

The target in a further test is TrkA kinase (Homo sapiens, UniProt P04629). Briefly: TrkA kinase assay (mobility shift assay). Type of test: biochemical. As to conditions: read-out: Trk A Kinase IC50. In outline: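 Caliper mobility-shift readout of FAM-labelled peptide conversion by TrkA in 50 mM HEPES pH 7.5, 0.0015% Brij-35, with ATP; enzyme preincubated 10 min with compound (10-point dilution), reaction at 28 °C, EDTA stop. Inhibition relative to DMSO and no-enzyme controls; IC50 by four-parameter fit.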
Chain of TrkA kinase (P04629 33-796): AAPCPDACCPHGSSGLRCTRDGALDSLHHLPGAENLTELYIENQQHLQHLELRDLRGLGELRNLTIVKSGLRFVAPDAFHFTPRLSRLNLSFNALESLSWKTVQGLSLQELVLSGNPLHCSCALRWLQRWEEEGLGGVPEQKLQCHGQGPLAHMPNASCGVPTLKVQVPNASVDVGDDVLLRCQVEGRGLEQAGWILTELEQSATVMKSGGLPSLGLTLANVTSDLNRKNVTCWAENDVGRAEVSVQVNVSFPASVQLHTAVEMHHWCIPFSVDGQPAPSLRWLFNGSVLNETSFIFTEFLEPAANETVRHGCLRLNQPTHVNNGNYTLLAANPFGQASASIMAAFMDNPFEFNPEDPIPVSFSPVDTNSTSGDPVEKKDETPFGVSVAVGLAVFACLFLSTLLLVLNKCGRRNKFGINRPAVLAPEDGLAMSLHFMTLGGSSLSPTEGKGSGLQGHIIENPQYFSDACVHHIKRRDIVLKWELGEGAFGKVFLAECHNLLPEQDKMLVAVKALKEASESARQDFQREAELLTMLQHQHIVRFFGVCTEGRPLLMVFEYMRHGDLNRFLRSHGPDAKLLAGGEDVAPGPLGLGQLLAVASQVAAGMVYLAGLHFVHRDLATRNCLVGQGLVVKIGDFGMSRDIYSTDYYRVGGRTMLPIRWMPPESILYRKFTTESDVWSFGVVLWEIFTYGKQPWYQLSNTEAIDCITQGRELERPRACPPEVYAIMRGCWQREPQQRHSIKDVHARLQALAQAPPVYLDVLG

The target in another test is T2, Ba/F3-TPM3-NTRK1 (Homo sapiens, UniProt P04629).
T2 construct: expressed in transfected cells; host or cells: Ba/F3; the other entry of the earlier key: TPM3 (P06753, Tropomyosin alpha-3 chain)
T2 sequence (P04629 510-796 limits assumed): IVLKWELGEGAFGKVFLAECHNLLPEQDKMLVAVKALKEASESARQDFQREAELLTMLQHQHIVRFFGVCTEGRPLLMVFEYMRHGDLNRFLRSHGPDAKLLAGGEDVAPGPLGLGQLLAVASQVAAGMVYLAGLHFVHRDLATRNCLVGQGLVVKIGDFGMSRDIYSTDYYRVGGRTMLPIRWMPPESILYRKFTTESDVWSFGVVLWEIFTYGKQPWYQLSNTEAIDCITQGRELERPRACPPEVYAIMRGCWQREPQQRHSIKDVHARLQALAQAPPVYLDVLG
The test can be described thus: Ba/F3-TPM3-NTRK1 cells proliferation assay. As to conditions: 72 h, CellTiter Glo. Type of test: cell-based. The procedure: as §1, §2, §3, §4, §5, §6, §7, §8, §9, §10, §11, §12, §13, §14, §15, §16, §17, §18
(In general: Cellular ATP, detected with luciferase, serves as a proxy for viable cell number.)

The text below walks through data of patent US20210395256A1, “TYROSINE KINASE INHIBITORS, COMPOSITIONS AND METHODS THERE OF” (Betta Pharmaceuticals Co., Ltd., priority 2018, published 2021).

Read-outs that look alike come from different tables or passages of the source.

The IC50 is the concentration at which inhibition is half-maximal.

T1 sequence (Q16288 whole entry, the tested form may be a part): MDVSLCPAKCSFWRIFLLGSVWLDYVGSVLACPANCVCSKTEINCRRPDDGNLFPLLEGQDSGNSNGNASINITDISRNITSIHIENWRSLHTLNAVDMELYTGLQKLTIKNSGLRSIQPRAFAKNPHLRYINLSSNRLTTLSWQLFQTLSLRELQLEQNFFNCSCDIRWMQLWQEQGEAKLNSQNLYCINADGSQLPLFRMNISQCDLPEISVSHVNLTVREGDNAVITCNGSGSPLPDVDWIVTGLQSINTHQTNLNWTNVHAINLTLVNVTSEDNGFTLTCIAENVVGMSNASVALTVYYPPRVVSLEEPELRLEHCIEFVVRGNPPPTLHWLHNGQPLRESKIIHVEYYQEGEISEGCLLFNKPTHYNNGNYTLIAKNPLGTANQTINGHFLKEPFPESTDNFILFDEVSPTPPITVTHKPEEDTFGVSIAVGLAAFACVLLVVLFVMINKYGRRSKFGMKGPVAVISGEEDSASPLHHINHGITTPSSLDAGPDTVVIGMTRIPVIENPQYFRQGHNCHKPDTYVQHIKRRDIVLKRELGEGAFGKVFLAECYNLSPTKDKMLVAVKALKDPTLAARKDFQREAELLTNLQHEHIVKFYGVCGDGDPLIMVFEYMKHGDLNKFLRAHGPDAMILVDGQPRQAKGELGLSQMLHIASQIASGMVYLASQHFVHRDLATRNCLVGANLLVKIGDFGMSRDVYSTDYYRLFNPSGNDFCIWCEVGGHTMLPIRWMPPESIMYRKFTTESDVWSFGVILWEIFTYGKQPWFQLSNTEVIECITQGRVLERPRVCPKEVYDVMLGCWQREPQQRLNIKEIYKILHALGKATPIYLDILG

`Fc1ccc(F)c([C@H]2CCCN2c2ccn3ncc(-c4nnc(-c5ccncc5)[nH]4)c3n2)c1` [Compound 8, (R)-5-(2-(2,5-difluorophenyl)pyrrolidin-1-yl)-3-(5-(pyridin-4-yl)-4H-1,2,4-triazol-3-yl)pyrazolo[1,5-a]pyrimidine]: the IC50 against Ba/F3-ETV6-NTRK3 turned out to be 1.55 nM.
Turning to `Oc1ccc(-c2nnc(-c3cnn4ccc(N5CCC[C@@H]5c5cc(F)ccc5F)nc34)[nH]2)cc1` [Compound 9, (R)-4-(5-(5-(2-(2,5-difluorophenyl)pyrrolidin-1-yl)pyrazolo[1,5-a]pyrimidin-3-yl)-4H-1,2,4-triazol-3-yl)phenol], the IC50 on TrkA kinase (class symbols) was 10 to 50 nM; at Ba/F3-ETV6-NTRK3, 2.11 nM; against Ba/F3-TPM3-NTRK1, 2.05 nM.
Taken in the same sequence, the figures for `Fc1ccc(F)c([C@H]2CCCN2c2ccn3ncc(-c4nnc(-c5cnccn5)[nH]4)c3n2)c1` [Compound 10, (R)-5-(2-(2,5-difluorophenyl)pyrrolidin-1-yl)-3-(5-(pyrazin-2-yl)-4H-1,2,4-triazol-3-yl)pyrazolo[1,5-a]pyrimidine] were 10 to 50 nM, 1.2 nM and 1.16 nM.
Turning to `COC(=O)N[C@@H](C)c1nnc(-c2cnn3ccc(N4CCC[C@@H]4c4cc(F)ccc4F)nc23)[nH]1` [Compound 12, methyl ((S)-1-(5-(5-((R)-2-(2,5-difluorophenyl)pyrrolidin-1-yl)pyrazolo[1,5-a]pyrimidin-3-yl)-4H-1,2,4-triazol-3-yl)ethyl)carbamate], the IC50 on TrkA kinase (class symbols) is > 50 nM; at Ba/F3-ETV6-NTRK3, 2.72 nM; on Ba/F3-TPM3-NTRK1, 7.71 nM.
In the case of `N#Cc1cccc(-c2nnc(-c3cnn4ccc(N5CCC[C@@H]5c5cc(F)ccc5F)nc34)[nH]2)c1` [Compound 13, (R)-3-(5-(5-(2-(2,5-difluorophenyl)pyrrolidin-1-yl)pyrazolo[1,5-a]pyrimidin-3-yl)-4H-1,2,4-triazol-3-yl)benzonitrile], the results for the half-inhibitory concentration (IC50) on TrkA kinase (class symbols), on Ba/F3-ETV6-NTRK3 and at Ba/F3-TPM3-NTRK1 were ≤ 10 nM, 1.83 nM and 0.98 nM, respectively.
Taken in the same sequence, the figures for `Fc1ccc(F)c([C@H]2CCCN2c2ccn3ncc(-c4nnc(-c5ccc(C(F)(F)F)nc5)[nH]4)c3n2)c1` [Compound 14, (R)-5-(2-(2,5-difluorophenyl)pyrrolidin-1-yl)-3-(5-(6-(trifluoromethyl)pyridin-3-yl)-4H-1,2,4-triazol-3-yl)pyrazolo[1,5-a]pyrimidine] were > 50 nM, 10 nM and 12.5 nM.
As for `CCOC(=O)c1nnc(-c2cnn3ccc(N4CCC[C@@H]4c4cc(F)ccc4F)nc23)[nH]1` [Compound 16, ethyl (R)-5-(5-(2-(2,5-difluorophenyl)pyrrolidin-1-yl)pyrazolo[1,5-a]pyrimidin-3-yl)-4H-1,2,4-triazole-3-carboxylate], the IC50 on TrkA kinase (class symbols) was > 50 nM; on Ba/F3-ETV6-NTRK3 it was 4.21 nM; against Ba/F3-TPM3-NTRK1, 9.18 nM.
As for `OC1CCC[C@H](c2nnc(-c3cnn4ccc(N5CCC[C@@H]5c5cc(F)ccc5F)nc34)[nH]2)C1` (stereo partly drawn) [Compound 18, (3S)-3-(5-(5-((R)-2-(2,5-difluorophenyl)pyrrolidin-1-yl)pyrazolo[1,5-a]pyrimidin-3-yl)-4H-1,2,4-triazol-3-yl)cyclohexan-1-ol], the IC50 at TrkA kinase (class symbols) was 10 to 50 nM; on Ba/F3-ETV6-NTRK3, 2.83 nM; against Ba/F3-TPM3-NTRK1, 3.81 nM.
On to `Fc1ccc(F)c([C@H]2CCCN2c2ccn3ncc(-c4nnc(C5CCNCC5)[nH]4)c3n2)c1` [Compound 22, (R)-5-(2-(2,5-difluorophenyl)pyrrolidin-1-yl)-3-(5-(piperidin-4-yl)-4H-1,2,4-triazol-3-yl)pyrazolo[1,5-a]pyrimidine], for which the IC50 on TrkA kinase (class symbols) is 10 to 50 nM; on Ba/F3-ETV6-NTRK3 it was 2.45 nM; against Ba/F3-TPM3-NTRK1, 2.93 nM.
Take `O=C(O)c1cc2nc(-c3cnn4ccc(N5CCC[C@@H]5c5cc(F)ccc5F)nc34)[nH]c2cc1F` [Compound 141, (R)-2-(5-(2-(2,5-difluorophenyl)pyrrolidin-1-yl)pyrazolo[1,5-a]pyrimidin-3-yl)-6-fluoro-1H-benzo[d]imidazole-5-carboxylic acid]: the IC50 at TrkA kinase (numeric values) came out at 0.3 nM; against Ba/F3-ETV6-NTRK3, 20.8 nM; on Ba/F3-TPM3-NTRK1, 30.1 nM.
As to `COC(=O)[C@@H]1CCCN1c1cc2[nH]c(-c3cnn4ccc(N5CCC[C@@H]5c5cc(F)ccc5F)nc34)nc2cc1C#N` [Compound 166, methyl (5-cyano-2-(5-((R)-2-(2,5-difluorophenyl)pyrrolidin-1-yl)pyrazolo[1,5-a]pyrimidin-3-yl)-1H-benzo[d]imidazol-6-yl)-L-prolinate], the values for the IC50 on TrkA kinase (numeric values), against Ba/F3-ETV6-NTRK3 and against Ba/F3-TPM3-NTRK1 were 2.5 nM, 7.73 nM and 4.67 nM, respectively.
Taken in the same sequence, the figures for `N#Cc1cc2nc(-c3cnn4ccc(N5CCC[C@@H]5c5cc(F)ccc5F)nc34)[nH]c2cc1N1CCC[C@H]1C(=O)O` [Compound 167, (5-cyano-2-(5-((R)-2-(2,5-difluorophenyl)pyrrolidin-1-yl)pyrazolo[1,5-a]pyrimidin-3-yl)-1H-benzo[d]imidazol-6-yl)-L-proline] were 0.3 nM, 19.6 nM and 13.2 nM.
